# Assay results from US4707468A, “Polypeptide” (Eisai Co., Ltd., priority 1984, dated 1987).
# What was measured:
# mice = assay: Toxicity (minimum lethal dose) in mice; type: in vivo; conditions: administered subcutaneously in mice
# From the text: The relationship between the toxicity (minimum lethal dose) of the peptide compound obtained in Examples 1 and 2 of the present invention and the effective dose is shown in Table 4.
# Effective dose and minimum lethal dose
# when administered subcutaneously in mice
# rabbit vas deferens = assay: Opioid activity, rabbit vas deferens method (inhibition of electrically stimulated contraction); type: cell-based; conditions: electric stimulation 0.1 Hz, 1 ms, 90 volt
# Method: The opioid activities of the compounds of the invention were examined by the method using rabbit vas deferens according to T. Oka, K. Negishi, M. Suda, T. Matsumiya, T. Inaza and M. Ueki, "Europ. J. Pharmacol.", Vol. 73, 235 (1980). In this test, mature male rabbits were sacrificed by introducing air into an […]. Immediately after death, a laparotomy was conducted and right and left vasa deferens were removed. The semen was pressed out of the ducts into Ringer's solution. A part of each duct was cut ([…] long from an end of the prostrate gland side). The pieces of the deferentaial ducts were suspened by means of a thread in a 6 ml constant-temperature glass cell and stimulated electrioally with an electric stimulation device having platinum electrodes under conditions of 0.1 Hz, 1 ms and 90 volt. A contraction due to the electric stimulation was recorded through a transducer.
# The opioid activity was determined on the basis of the inhibition of the contraction due to the electric stimulation.
# The results are shown in Table 3 in terms of 50% inhibitation concentration (IC50).
# The following compounds obtained in the examples ere tested in the same way as described above.
molecule,measurement,setting,value
"CN[C@@H](Cc1ccc(O)cc1)C(=O)NCC(=O)NCC(=O)N[C@@H](Cc1ccccc1)C(=O)N[C@@H](CC(C)C)C(=O)N[C@@H](CCCNC(=N)N)C(=O)N(C)[C@@H](CCCNC(=N)N)C(=O)N(C)[C@@H](C)C(=O)O [Example 31, CH3 Tyr-Gly-Gly-Phe-Leu-Arg-CH3 Arg-CH3 Ala-OH]",Minimum Lethal Dose,mice,> 100 mg/kg
"CCNC(=O)[C@@H](CC(C)C)NC(=O)[C@H](CCCNC(=N)N)N(C)C(=O)[C@H](CCCNC(=N)N)NC(=O)[C@H](CC(C)C)NC(=O)[C@H](Cc1ccccc1)NC(=O)CNC(=O)CNC(=O)[C@H](Cc1ccc(O)cc1)NC [Example 1, CH3 Tyr-Gly-Gly-Phe-Leu-Arg-CH3 Arg-D-Leu-NHC2 H5]",Minimum Lethal Dose,mice,100 mg/kg
"CN[C@@H](Cc1ccc(O)cc1)C(=O)NCC(=O)NCC(=O)N[C@@H](Cc1ccccc1)C(=O)N[C@@H](CC(C)C)C(=O)N[C@@H](CCCNC(=N)N)C(=O)N(C)[C@@H](CCCNC(=N)N)C(=O)N[C@H](C)C(=O)O [Example 30, CH3 Tyr-Gly-Gly-Phe-Leu-Arg-CH3 Arg-D-Ala-OH]",Minimum Lethal Dose,mice,> 100 mg/kg
H-Tyr-Gly-Gly-Phe-Leu-Arg-Arg-Ile-Arg-Pro-Lys-Leu-Lys-Trp-Asp-Asn-Gln-OH [dynorphin A (1-17)],IC50,rabbit vas deferens,0.0174 µM
"CC[C@H](C)[C@@H](C(=O)O)N(C)C(=O)[C@H](CCCNC(=N)N)N(C)C(=O)[C@H](CCCNC(=N)N)NC(=O)[C@H](CC(C)C)NC(=O)[C@H](Cc1ccccc1)NC(=O)CNC(=O)CNC(=O)[C@H](Cc1ccc(O)cc1)NC [Example 36, CH3 Tyr--Gly--Gly--Phe--Leu--Arg--CH3 Arg--CH3 Ile--OH]",Minimum Lethal Dose,mice,> 100 mg/kg
